Tests used:
[1] = molecular target: Histone deacetylase 3/Nuclear receptor corepressor 2 (HDAC3/NCoR2) (Homo sapiens, UniProt O15379); experiment: Inhibition of human recombinant full length C-terminal His-tagged HDAC3 (1 to 428 residues)/N-terminal GST-tagged NCOR2 (395 to 489 residues) expressed in baculovirus infected Sf9 cells using Ac-peptide-AMC as substrate preincubated for 15 mins followed by substrate addition and measured after 60 mins by fluorescence based assay
Histone deacetylase 8 = molecular target: T1, Histone deacetylase 8 (Homo sapiens, UniProt Q9BY41); experiment: Inhibition of full length C-terminal His-tagged human HDAC8 expressed in baculovirus infected Sf9 cells using Ac-peptide-AMC as substrate preincubated for 15 mins followed by substrate addition and measured after 240 mins by fluorescence based assay
T1 sequence (Q9BY41 whole entry): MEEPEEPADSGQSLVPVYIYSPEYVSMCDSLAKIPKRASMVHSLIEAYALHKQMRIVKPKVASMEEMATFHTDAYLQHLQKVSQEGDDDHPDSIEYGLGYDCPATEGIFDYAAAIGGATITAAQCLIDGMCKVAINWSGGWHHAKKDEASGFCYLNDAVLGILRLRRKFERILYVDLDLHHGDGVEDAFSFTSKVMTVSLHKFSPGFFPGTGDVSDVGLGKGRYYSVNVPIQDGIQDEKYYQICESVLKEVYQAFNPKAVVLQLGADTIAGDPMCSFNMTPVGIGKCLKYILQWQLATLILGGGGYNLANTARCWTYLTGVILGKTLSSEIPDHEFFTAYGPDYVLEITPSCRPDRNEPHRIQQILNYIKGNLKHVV

Histone deacetylase 1 = Histone deacetylase 1 (Homo sapiens, UniProt Q13547); experiment: Inhibition of recombinant full length C-terminal FLAG/His-tagged human HDAC1 expressed in baculovirus infected Sf9 cells using Ac-peptide-AMC as substrate preincubated for 15 mins followed by substrate addition and measured after 60 mins by fluorescence based assay
Chain of Histone deacetylase 1 (Q13547 whole entry): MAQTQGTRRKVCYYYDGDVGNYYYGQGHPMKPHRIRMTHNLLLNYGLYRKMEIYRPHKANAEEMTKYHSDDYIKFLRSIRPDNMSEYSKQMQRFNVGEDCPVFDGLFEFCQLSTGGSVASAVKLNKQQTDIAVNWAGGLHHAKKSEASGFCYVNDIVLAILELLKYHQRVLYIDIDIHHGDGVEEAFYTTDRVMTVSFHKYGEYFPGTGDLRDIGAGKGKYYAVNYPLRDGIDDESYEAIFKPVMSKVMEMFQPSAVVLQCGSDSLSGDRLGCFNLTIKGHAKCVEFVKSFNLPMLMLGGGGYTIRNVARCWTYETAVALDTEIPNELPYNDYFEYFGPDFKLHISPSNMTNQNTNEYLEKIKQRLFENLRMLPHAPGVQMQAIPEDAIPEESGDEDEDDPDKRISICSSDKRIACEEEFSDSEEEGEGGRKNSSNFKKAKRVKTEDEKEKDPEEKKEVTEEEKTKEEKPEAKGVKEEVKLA

[2] = molecular target: T2, Protein deacetylase HDAC6 (Homo sapiens, UniProt Q9UBN7); experiment: Inhibition of recombinant human HDAC6 using Ac-peptide-AMC as substrate preincubated for 15 mins followed by substrate addition and measured after 60 mins by fluorescence based assay; settings: for inhibition (INH): human, 1 h
T2 sequence (Q9UBN7 whole entry): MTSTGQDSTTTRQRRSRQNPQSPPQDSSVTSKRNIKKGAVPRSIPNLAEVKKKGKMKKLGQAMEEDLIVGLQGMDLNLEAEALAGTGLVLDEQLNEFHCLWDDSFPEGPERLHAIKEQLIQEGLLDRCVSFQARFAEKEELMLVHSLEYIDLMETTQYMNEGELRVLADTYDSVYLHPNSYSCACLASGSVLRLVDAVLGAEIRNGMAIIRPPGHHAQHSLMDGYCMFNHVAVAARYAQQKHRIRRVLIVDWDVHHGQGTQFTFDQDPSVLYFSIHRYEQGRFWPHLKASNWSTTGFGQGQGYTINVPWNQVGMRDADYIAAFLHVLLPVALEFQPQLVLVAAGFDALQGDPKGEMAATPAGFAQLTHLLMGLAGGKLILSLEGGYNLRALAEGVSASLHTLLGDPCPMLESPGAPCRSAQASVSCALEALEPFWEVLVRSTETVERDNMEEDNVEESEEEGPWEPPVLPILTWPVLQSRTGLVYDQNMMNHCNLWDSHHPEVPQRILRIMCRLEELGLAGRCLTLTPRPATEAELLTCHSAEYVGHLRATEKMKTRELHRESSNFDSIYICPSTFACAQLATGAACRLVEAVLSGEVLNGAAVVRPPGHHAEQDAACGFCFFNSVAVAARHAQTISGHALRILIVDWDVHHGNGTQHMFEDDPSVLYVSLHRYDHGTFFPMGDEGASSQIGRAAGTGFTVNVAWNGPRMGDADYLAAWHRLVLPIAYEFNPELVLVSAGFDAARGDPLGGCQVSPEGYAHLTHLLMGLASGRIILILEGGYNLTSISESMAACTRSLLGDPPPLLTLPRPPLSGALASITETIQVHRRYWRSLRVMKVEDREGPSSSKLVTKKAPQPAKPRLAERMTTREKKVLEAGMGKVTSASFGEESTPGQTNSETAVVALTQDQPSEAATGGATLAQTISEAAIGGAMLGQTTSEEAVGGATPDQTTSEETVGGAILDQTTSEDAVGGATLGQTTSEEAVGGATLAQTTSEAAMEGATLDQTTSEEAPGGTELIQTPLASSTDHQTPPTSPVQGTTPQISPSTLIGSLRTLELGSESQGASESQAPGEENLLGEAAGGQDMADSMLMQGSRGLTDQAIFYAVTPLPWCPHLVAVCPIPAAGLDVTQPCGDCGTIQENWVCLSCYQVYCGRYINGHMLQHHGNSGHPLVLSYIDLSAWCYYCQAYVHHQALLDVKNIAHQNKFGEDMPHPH

Histone deacetylase 2 = Histone deacetylase 2 (Homo sapiens, UniProt Q92769); experiment: biochemical; format: cell-based, Sf9
Chain of Histone deacetylase 2 (Q92769 whole entry): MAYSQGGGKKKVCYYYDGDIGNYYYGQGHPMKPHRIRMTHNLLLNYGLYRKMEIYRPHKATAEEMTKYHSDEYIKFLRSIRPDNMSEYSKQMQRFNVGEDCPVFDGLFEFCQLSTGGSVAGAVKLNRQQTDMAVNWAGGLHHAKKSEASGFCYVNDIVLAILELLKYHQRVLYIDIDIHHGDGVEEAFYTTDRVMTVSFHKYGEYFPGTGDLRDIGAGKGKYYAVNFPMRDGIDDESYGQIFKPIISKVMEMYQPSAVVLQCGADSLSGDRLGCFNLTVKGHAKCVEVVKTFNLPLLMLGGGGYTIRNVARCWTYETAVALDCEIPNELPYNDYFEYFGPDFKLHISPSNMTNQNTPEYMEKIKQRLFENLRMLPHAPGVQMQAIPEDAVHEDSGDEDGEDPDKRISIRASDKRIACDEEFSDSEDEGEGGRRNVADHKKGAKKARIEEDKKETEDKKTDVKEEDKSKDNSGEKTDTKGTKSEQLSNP
Description: Inhibition of recombinant full length human HDAC2 expressed in baculovirus infected Sf9 cells using Ac-peptide-AMC as substrate preincubated for 15 mins followed by substrate addition and measured after 60 mins by fluorescence based assay

SK-OV-3 = experiment: Antiproliferative activity against human SKOV3 cells assessed as reduction in cell viability after 72 hrs by MTT assay; format: functional, cell-based; settings: SK-OV-3, 72 h
MDA-MB-231 = experiment: Antiproliferative activity against human MDA-MB-231 cells assessed as reduction in cell viability after 72 hrs by MTT assay; format: functional, cell-based; settings: MDA-MB-231, 72 h
A549 = experiment: Antiproliferative activity against human A549 cells assessed as reduction in cell viability after 72 hrs by MTT assay; format: functional, cell-based; settings: A549, 72 h
HCT-116 = experiment: Antiproliferative activity against human HCT116 cells assessed as reduction in cell viability after 72 hrs by MTT assay; format: functional, cell-based; settings: HCT-116, 72 h
[3] = molecular target: T2, Protein deacetylase HDAC6; experiment: Inhibition of HDAC6 in human HCT116 cells assessed as alpha tubulin acetylation at 0.1 to 10000 nM after 24 hrs by Western blot analysis; format: cell-based; settings: 10 µM
[4] = molecular target: Histone deacetylase (Homo sapiens) (UniProt Q13547+O15379+Q9UBN7+Q92769+Q9UQL6+Q8WUI4+Q9BY41+Q96DB2+P56524+Q9UKV0+Q969S8); experiment: Inhibition of HDAC in human HCT116 cells assessed as increase in histone H3 acetylation after 24 hrs by Western blot analysis; format: cell-based
Homo sapiens [5] = species: Homo sapiens; experiment: Selectivity ratio of IC50 for inhibition of human recombinant full length C-terminal His-tagged HDAC3 (1 to 428 residues)/N-terminal GST-tagged NCOR2 (395 to 489 residues) expressed in baculovirus infected Sf9 cells to IC50 for inhibition recombinant full length C-terminal FLAG/His-tagged human HDAC1 expressed in baculovirus infected Sf9 cells
Homo sapiens [6] = species: Homo sapiens; experiment: Selectivity ratio of IC50 for inhibition of recombinant full length human HDAC2 expressed in baculovirus infected Sf9 cells to IC50 for inhibition of recombinant full length C-terminal FLAG/His-tagged human HDAC1 expressed in baculovirus infected Sf9 cells

Chain of Histone deacetylase 3/Nuclear receptor corepressor 2 (HDAC3/NCoR2) (O15379 whole entry, the tested form may be a part): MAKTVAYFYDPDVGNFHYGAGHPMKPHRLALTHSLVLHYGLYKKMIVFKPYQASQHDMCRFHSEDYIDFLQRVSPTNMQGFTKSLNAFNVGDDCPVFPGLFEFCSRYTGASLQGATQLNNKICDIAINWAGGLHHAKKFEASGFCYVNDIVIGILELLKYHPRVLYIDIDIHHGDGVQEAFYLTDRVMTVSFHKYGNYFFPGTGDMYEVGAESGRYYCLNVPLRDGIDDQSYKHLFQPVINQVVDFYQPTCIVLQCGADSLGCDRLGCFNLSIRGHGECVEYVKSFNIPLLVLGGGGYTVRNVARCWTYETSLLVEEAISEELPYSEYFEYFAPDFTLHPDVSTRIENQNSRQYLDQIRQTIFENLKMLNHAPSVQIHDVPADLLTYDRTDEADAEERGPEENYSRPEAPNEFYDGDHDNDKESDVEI
Chain of Histone deacetylase 3/Nuclear receptor corepressor 2 (HDAC3/NCoR2) (Q9Y618 whole entry, further chain, the tested form may be a part): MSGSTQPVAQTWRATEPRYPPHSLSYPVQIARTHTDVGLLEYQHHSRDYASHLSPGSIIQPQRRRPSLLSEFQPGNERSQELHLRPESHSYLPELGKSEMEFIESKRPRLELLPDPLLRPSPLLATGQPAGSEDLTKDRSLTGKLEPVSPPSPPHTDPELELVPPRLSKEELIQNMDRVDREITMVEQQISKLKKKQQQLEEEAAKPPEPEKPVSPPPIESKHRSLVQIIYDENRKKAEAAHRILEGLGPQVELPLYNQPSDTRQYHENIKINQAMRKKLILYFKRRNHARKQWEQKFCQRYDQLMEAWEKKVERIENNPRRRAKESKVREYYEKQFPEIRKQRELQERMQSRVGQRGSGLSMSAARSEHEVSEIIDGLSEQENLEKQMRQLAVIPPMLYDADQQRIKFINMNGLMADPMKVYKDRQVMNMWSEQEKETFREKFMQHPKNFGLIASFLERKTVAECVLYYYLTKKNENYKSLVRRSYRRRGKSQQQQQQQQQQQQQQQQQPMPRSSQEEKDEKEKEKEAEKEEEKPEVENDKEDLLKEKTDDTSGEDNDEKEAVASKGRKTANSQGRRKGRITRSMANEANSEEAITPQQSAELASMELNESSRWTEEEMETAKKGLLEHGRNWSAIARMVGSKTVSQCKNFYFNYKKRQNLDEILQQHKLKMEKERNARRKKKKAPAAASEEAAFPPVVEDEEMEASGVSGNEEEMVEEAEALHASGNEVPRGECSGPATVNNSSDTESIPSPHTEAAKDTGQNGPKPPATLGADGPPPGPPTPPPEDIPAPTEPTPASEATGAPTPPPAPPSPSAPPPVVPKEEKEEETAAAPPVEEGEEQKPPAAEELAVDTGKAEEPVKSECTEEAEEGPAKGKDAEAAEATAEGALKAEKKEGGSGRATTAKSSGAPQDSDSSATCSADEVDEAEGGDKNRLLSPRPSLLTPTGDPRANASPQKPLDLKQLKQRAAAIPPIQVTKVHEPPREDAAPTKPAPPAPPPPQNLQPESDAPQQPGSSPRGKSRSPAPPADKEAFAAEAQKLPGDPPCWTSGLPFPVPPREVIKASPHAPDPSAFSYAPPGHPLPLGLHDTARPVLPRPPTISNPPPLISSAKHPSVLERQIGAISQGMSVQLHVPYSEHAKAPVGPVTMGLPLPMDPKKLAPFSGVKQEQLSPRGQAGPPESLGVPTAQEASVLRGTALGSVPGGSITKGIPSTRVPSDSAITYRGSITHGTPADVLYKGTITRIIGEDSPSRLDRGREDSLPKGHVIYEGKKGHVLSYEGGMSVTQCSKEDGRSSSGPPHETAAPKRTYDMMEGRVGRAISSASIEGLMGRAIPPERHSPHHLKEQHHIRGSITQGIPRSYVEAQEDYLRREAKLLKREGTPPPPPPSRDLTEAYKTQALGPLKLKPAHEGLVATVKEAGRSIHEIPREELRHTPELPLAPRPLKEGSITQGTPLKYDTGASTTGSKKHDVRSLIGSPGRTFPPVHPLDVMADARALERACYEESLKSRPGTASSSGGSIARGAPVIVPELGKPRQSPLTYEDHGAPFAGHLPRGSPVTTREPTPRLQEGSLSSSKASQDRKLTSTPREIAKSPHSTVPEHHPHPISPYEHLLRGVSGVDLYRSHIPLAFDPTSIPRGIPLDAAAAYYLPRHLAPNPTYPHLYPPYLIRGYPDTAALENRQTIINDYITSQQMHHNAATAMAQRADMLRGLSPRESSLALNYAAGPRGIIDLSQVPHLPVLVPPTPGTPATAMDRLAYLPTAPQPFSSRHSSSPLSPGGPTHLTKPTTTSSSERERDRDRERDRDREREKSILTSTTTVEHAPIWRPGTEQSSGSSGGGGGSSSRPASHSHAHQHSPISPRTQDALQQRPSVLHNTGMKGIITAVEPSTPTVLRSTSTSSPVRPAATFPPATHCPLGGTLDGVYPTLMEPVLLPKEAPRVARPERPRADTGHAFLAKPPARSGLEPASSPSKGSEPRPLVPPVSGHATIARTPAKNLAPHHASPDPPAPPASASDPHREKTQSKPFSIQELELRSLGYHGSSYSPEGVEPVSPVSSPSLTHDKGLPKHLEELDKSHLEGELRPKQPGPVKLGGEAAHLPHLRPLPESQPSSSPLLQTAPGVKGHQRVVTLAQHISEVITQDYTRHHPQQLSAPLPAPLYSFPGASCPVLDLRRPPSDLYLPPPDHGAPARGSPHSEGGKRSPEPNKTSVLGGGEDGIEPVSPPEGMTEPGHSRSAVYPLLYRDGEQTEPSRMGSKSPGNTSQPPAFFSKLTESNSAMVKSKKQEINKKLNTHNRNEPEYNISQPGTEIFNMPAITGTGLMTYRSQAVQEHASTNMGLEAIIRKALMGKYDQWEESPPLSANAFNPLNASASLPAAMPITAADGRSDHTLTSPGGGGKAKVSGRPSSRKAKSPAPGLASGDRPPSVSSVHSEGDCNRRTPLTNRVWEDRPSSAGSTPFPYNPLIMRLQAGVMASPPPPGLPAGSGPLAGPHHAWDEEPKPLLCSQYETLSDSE

`CC(C)[C@@H]1NC(=O)[C@]2(C)CSC(=N2)c2csc(n2)CNC(=O)C(F)(F)[C@@H](/C=C/CCS)NC1=O` gave an IC50 [1] of 7.43 nM, an IC50 (Histone deacetylase 8) of 166 nM and an IC50 (Histone deacetylase 1) of 6.31 nM. The IC50 [2] was 1410 nM, the “inhibition (INH)” value [2] was “Dose-dependent effect” and the IC50 (Histone deacetylase 2) was 9.25 nM.
For `CCCCCCCC(=O)SCC/C=C(\F)[C@@H]1CC(=O)NCc2nc(cs2)C2=N[C@@](C)(CS2)C(=O)N[C@@H](C(C)C)C(=O)O1`, the IC50 (SK-OV-3) was 240 nM, the IC50 [1] was 2300 nM and the IC50 (MDA-MB-231) was 3.85 µM. The IC50 (A549) was 520 nM, the IC50 [2] was > 5000 nM and the “inhibition (INH)” value [2] was “Dose-dependent effect”. The IC50 (HCT-116) was 810 nM.
With `CC(C)[C@@H]1NC(=O)[C@]2(C)CSC(=N2)c2csc(n2)CNC(=O)C[C@@H](/C=C/CCS)OC1=O` the “inhibition (INH)” value [2] was “Dose-dependent effect”.
With `CCCCCCCC(=O)SCC(F)(F)/C=C/[C@@H]1CC(=O)NCc2nc(cs2)C2=N[C@@](C)(CS2)C(=O)N[C@@H](C(C)C)C(=O)O1` the IC50 (SK-OV-3) was > 10000 nM, the IC50 (MDA-MB-231) was > 10 µM and the IC50 (A549) was > 10000 nM. For the same compound, the IC50 (HCT-116) was > 10000 nM.
`CC(C)[C@@H]1NC(=O)[C@]2(C)CSC(=N2)c2csc(n2)CNC(=O)C[C@H](/C(F)=C/CCS)OC1=O` was tested, and the IC50 [1] was 51.4 nM, the IC50 (Histone deacetylase 8) was 378 nM and the IC50 (Histone deacetylase 1) was 78.5 nM. For the same compound, the IC50 [2] was 1830 nM, the “inhibition (INH)” value [2] was “Dose-dependent effect” and the IC50 (Histone deacetylase 2) was 95.5 nM.
With `CCCCCCCC(=O)SCC/C(F)=C/[C@@H]1CC(=O)NCc2nc(cs2)C2=N[C@@](C)(CS2)C(=O)N[C@@H](C(C)C)C(=O)O1` the “inhibition (INH)” value [3] was “Not Active”, the inhibition [4] was “Dose-dependent effect” and the IC50 (SK-OV-3) was 260 nM. For the same compound, the IC50 (MDA-MB-231) was 4.11 µM, the IC50 (A549) was 170 nM and the IC50 (HCT-116) was 170 nM.
In the case of `O=C(CCCCCCC(=O)Nc1ccccc1)NO` [VORINOSTAT], the “inhibition (INH)” value [2] is reported as “Dose-dependent effect”.
For `CCCCCCCC(=O)SCC/C=C(\F)[C@H]1CC(=O)NCc2nc(cs2)C2=N[C@@](C)(CS2)C(=O)N[C@@H](C(C)C)C(=O)O1`, the IC50 (SK-OV-3) was > 10000 nM, the IC50 (MDA-MB-231) was > 10 µM and the IC50 (A549) was > 10000 nM. The IC50 (HCT-116) was > 10000 nM.
Work on `CC(C)[C@@H]1NC(=O)[C@]2(C)CSC(=N2)c2csc(n2)CNC(=O)C[C@@H](/C(F)=C/CCS)NC1=O` yielded an IC50 [1] of 8.53 nM, an IC50 (Histone deacetylase 8) of 27.1 nM and an IC50 (Histone deacetylase 1) of 2.9 nM. The IC50 [2] was 333 nM, the “inhibition (INH)” value [2] was “Dose-dependent effect” and the IC50 (Histone deacetylase 2) was 7.42 nM.
In the case of `CC(C)[C@@H]1NC(=O)[C@]2(C)CSC(=N2)c2csc(n2)CNC(=O)C[C@@H](/C(F)=C/CCS)OC1=O`, the “inhibition (INH)” value [2] is reported as “Dose-dependent effect”.
`CCCCCCCC(=O)SCC/C=C/[C@@H]1CC(=O)NCc2nc(cs2)C2=N[C@@](C)(CS2)C(=O)N[C@@H](C(C)C)C(=O)O1` [LARGAZOLE] gave an IC50 (SK-OV-3) of 250 nM, an IC50 (MDA-MB-231) of 4.75 µM and an IC50 (A549) of 460 nM. The “inhibition (INH)” value [2] was “Dose-dependent effect” and the IC50 (HCT-116) was 44 to 110 nM.
`CC(C)[C@@H]1NC(=O)[C@]2(C)CSC(=N2)c2csc(n2)CNC(=O)C[C@@H](/C=C(\F)CCS)OC1=O` gave an IC50 [1] of 3.2 nM, an IC50 (Histone deacetylase 8) of 0.41 nM and an IC50 (Histone deacetylase 1) of 0.46 nM. For the same compound, the IC50 [2] was 19.7 nM, the “inhibition (INH)” value [2] was “Dose-dependent effect” and the IC50 (Histone deacetylase 2) was 2.46 nM.
With `CCCCCCCC(=O)SCC/C=C(\F)[C@@H]1CC(=O)NCc2nc(cs2)C2=N[C@@](C)(CS2)C(=O)N[C@@H](C(C)C)C(=O)N1` the IC50 (SK-OV-3) was > 10000 nM, the IC50 (MDA-MB-231) was > 10 µM and the IC50 (A549) was > 10000 nM. The IC50 (HCT-116) was 6620 nM.
`CC(C)[C@@H]1NC(=O)[C@]2(C)CSC(=N2)c2csc(n2)CNC(=O)C[C@@H](/C=C/C(F)(F)CS)OC1=O` was tested, and the IC50 [1] was 8.21 nM, the Ratio IC50 (Homo sapiens [5]) was 79 and the IC50 (Histone deacetylase 8) was 44.1 nM. The IC50 (Histone deacetylase 1) was 11.9 nM, the IC50 [2] was 898 nM and the “inhibition (INH)” value [2] was “Dose-dependent effect”. It also gave a Ratio IC50 (Homo sapiens [6]) of 79 and an IC50 (Histone deacetylase 2) of 18.5 nM.
`CCCCCCCC(=O)SCC/C=C/[C@H]1NC(=O)[C@H](C(C)C)NC(=O)[C@]2(C)CSC(=N2)c2csc(n2)CNC(=O)C1(F)F` was tested, and the IC50 (SK-OV-3) was > 10000 nM, the IC50 (MDA-MB-231) was > 10 µM and the IC50 (A549) was > 10000 nM. For the same compound, the IC50 (HCT-116) was > 10000 nM.

From ChEMBL document CHEMBL4359920 (Eur J Med Chem, 2019)
